Positions of bridges follow the written chain, without caps; N, C: chain ends. Non-standard residues stand in square brackets, D forms with d. Residues, ends and D or L forms follow the SMILES beside them. *: point of attachment. NMePhe(3-Cl) = CN[C@@H](Cc1cccc(Cl)c1)C(=O)O; NMeF = CN[C@@H](Cc1ccccc1)C(=O)O; NMeI = CC[C@H](C)[C@H](NC)C(=O)O; NMeL = CN[C@@H](CC(C)C)C(=O)O; NMeV = CN[C@H](C(=O)O)C(C)C; NMeA = CN[C@@H](C)C(=O)O; Piperidide = C1CCN(*)CC1; dNMeA = CN[C@H](C)C(=O)O; β3hA = C[C@H](N)CC(=O)O; Sar = CNCC(=O)O
Experiments:
[1] = PAMPA (parallel artificial membrane permeability assay); format: in vitro ADME; settings: PAMPA; membrane permeation rate (Pe); 50 mM MOPSO buffer pH 6.5 with 5.0% glycocholic acid, 37° C., 18 hours; read-out: iPAMPA Pe
Outline: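 Artificial membrane was 10% (w/v) egg lecithin plus 0.5% (w/v) cholesterol in dodecane on a PVDF filter. A 10 mM DMSO stock was added at 0.5% (v/v) to donor buffer (50 mM MOPSO, pH 6.5, 5.0% glycocholic acid). After 18 h at 37 °C, LC/MS or LC/UV gave donor and acceptor levels for Pe.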

[2] = Metabolic stability in human hepatic microsome; format: in vitro ADME; settings: microsomes, pH 7.4; human hepatic microsome, NADPH(+); read-out: CL NADPH(+)

SMILES: CC(C)C[C@H]1C(=O)N[C@@H](C(C)C)C(=O)N(C)[C@@H](C)C(=O)N(C)[C@@H](C)C(=O)N[C@@H]([C@@H](C)O)C(=O)N(C)[C@@H](C)C(=O)N[C@H](C(=O)N(C)[C@@H](Cc2ccccc2)C(=O)N(C)[C@@H](Cc2ccccc2)C(=O)N[C@@H](C)C(=O)N2CCCCC2)CC(=O)N(C)[C@H](C)C(=O)N(C)[C@@H](Cc2ccccc2)C(=O)N1C [DP-400] ([dNMeA][NMeF][NMeL]V[NMeA][NMeA]T[NMeA]D[NMeF][NMeF]A-Piperidide; lactam N-9)
- Papp at 18 hours, 50 µM [1]: 15 ×10⁻⁶ cm/s
- microsomal CLint at 1 uM [2]: 24 µL/min/mg

SMILES: CC[C@H](C)[C@H](NC(=O)[C@@H](NC(=O)[C@H](C)N(C)C(=O)[C@@H]1CC(=O)N(C)[C@@H](C)C(=O)N(C)[C@@H](CC(C)C)C(=O)N(C)[C@@H](CC(C)C)C(=O)N[C@@H](CC(C)C)C(=O)N(C)[C@@H](CC(C)C)C(=O)N(C)[C@@H](Cc2ccccc2)C(=O)N(C)[C@@H](Cc2ccccc2)C(=O)N[C@@H]([C@@H](C)O)C(=O)N(C)[C@@H](C)C(=O)N(C)[C@@H](CC(C)C)C(=O)N1)C(C)C)C(=O)N1CCCCC1 [DP-951] ([NMeA][NMeL][NMeL]L[NMeL][NMeF][NMeF]T[NMeA][NMeL]D[NMeA]VI-Piperidide; lactam N-11)
- Papp at 18 hours, 50 µM [1]: 0.1 ×10⁻⁶ cm/s
- microsomal CLint at 1 uM [2]: 11 µL/min/mg

SMILES: CC[C@H](C)[C@H](NC(=O)[C@H](C)N(C)C(=O)[C@@H]1CCCN1C(=O)[C@@H](NC(=O)[C@@H]1CC(=O)N(C)[C@H](C)C(=O)N(C)[C@@H](CC(C)C)C(=O)N(C)[C@@H](Cc2ccccc2)C(=O)N[C@@H](CC(C)C)C(=O)N(C)[C@@H](Cc2cccc(Cl)c2)C(=O)N[C@@H]([C@@H](C)O)C(=O)N(C)[C@@H](Cc2ccccc2)C(=O)N[C@@H](CC(C)C)C(=O)N1)[C@@H](C)CC)C(=O)N1CCCCC1 [DP-942] ([dNMeA][NMeL][NMeF]L[NMePhe(3-Cl)]T[NMeF]LDIP[NMeA]I-Piperidide; lactam N-9)
- Papp at 18 hours, 50 µM [1]: 0.1 ×10⁻⁶ cm/s
- microsomal CLint at 1 uM [2]: 23 µL/min/mg

SMILES: CC(C)C[C@@H]1NC(=O)[C@H](C)N(C)C(=O)[C@H]([C@@H](C)O)NC(=O)[C@H](Cc2ccccc2)N(C)C(=O)CNC(=O)[C@H](C(C)C)N(C)C(=O)[C@H](C(C)C)NC(=O)[C@H](C)N(C)C(=O)[C@H](Cc2ccccc2)NC(=O)[C@H](C)N(C)C(=O)[C@@H](C)N(C)C(=O)C[C@H](C)NC1=O [DP-753] (cyclo(F[NMeA]V[NMeV]G[NMeF]T[NMeA]L[β3hA][dNMeA][NMeA]))
- Papp at 18 hours, 50 µM [1]: 10 ×10⁻⁶ cm/s
- microsomal CLint at 1 uM [2]: 35 µL/min/mg

SMILES: CC[C@H](C)[C@H](NC(=O)[C@@H]1CC(=O)N[C@@H](C)C(=O)N[C@@H]([C@@H](C)O)C(=O)N(C)CC(=O)N[C@@H](CC(C)C)C(=O)N2CCC[C@H]2C(=O)N(C)[C@@H](CC(C)C)C(=O)N[C@@H](Cc2ccccc2)C(=O)N(C)[C@@H](Cc2ccccc2)C(=O)N(C)[C@@H](C)C(=O)N(C)[C@@H](CC(C)C)C(=O)N[C@@H](C)C(=O)N(C)[C@@H](CC(C)C)C(=O)N1)C(=O)N1CCCCC1 [DP-955] (AT[Sar]LP[NMeL]F[NMeF][NMeA][NMeL]A[NMeL]DI-Piperidide; lactam N-13)
- Papp at 18 hours, 50 µM [1]: 6.3 ×10⁻⁶ cm/s
- microsomal CLint at 1 uM [2]: 30 µL/min/mg

SMILES: CC[C@H](C)[C@H]1C(=O)N(C)[C@@H](C(C)C)C(=O)N(C)CC(=O)N[C@@H]([C@@H](C)O)C(=O)N[C@H](C(=O)N2CCCCC2)CC(=O)N[C@H](C)C(=O)N(C)[C@@H](C)C(=O)N(C)[C@@H](CC(C)C)C(=O)N[C@@H](CC(C)C)C(=O)N(C)[C@@H](Cc2ccccc2)C(=O)N[C@@H](Cc2ccccc2)C(=O)N1C [DP-98] ([dA][NMeA][NMeL]L[NMeF]F[NMeI][NMeV][Sar]TD-Piperidide; lactam N-11)
- Papp at 18 hours, 50 µM [1]: 26 ×10⁻⁶ cm/s
- microsomal CLint at 1 uM [2]: 27 µL/min/mg

SMILES: CC[C@H](C)[C@H](NC(=O)[C@H](C)N(C)C(=O)[C@H](Cc1ccccc1)N(C)C(=O)[C@H](CC(C)C)N(C)C(=O)[C@@H]1CC(=O)N[C@@H](C)C(=O)N(C)[C@@H](Cc2ccccc2)C(=O)N(C)[C@@H](CC(C)C)C(=O)N[C@@H]([C@@H](C)O)C(=O)N(C)CC(=O)N(C)[C@@H](Cc2ccccc2)C(=O)N1)C(=O)N1CCCCC1 [DP-918] (A[NMeF][NMeL]T[Sar][NMeF]D[NMeL][NMeF][NMeA]I-Piperidide; lactam N-7)
- Papp at 18 hours, 50 µM [1]: 5.3 ×10⁻⁶ cm/s
- microsomal CLint at 1 uM [2]: 55 µL/min/mg
